Test results from publication PMC10510756 (Chemical Science, 2023).

Assays:
[1] = test system: SAM-VI RS (RNA, riboswitch) GGCAUUGUGCCUCGCAUUGCACUCCGCGGGGCGAUAAGUCCUGAAAAGGGAUGUC; assay: MST, SybrGold (1x) non-covalent dye; conditions: 100 mM KCl, 25 mM MgCl2; 50 mM Tris-HCl pH 7.5, 25 °C, 100 nM RNA
[2] = test system: Cy5-SAM-VI RS (RNA, riboswitch) GGCAUUGUGCCUCGCAUUGCACUCCGCGGGGCGAUAAGUCCUGAAAAGGGAUGUC; assay: MST, 5'-Cy5-labelled RNA; conditions: 100 mM KCl, 25 mM MgCl2; 50 mM Tris-HCl pH 7.5, 25 °C, 20 nM RNA
[3] = test system: SAM-I RS (RNA, riboswitch) GGCUUAUCAAGAGAGGGGGAGCGACUGGCGCGAAGAACCCCGGCAACCAGAAAUGGUGCCAAUUCCUGCAGCGGAAACGUUGAAAGAUGAGCCG; assay: MST, SybrGold (1x) non-covalent dye; conditions: 100 mM KCl, 25 mM MgCl2; 50 mM Tris-HCl pH 7.5, 25 °C, 100 nM RNA
[4] = test system: Neomycin aptamer (RNA, aptamer) GGCUGCUUGUCCUUUAAUGGUCCAGUC; assay: MST, Syto 59 (1x) non-covalent dye; conditions: 100 mM KCl, 25 mM MgCl2; 50 mM Tris-HCl pH 7.5, 25 °C, 100 nM RNA; apparent; below tight-binding limit
[5] = test system: PreQ1 RS (RNA, riboswitch) GGAGAGGUUCUAGCUACACCUCUAUAAAAAACUAA; assay: MST, SybrGold (1x) non-covalent dye; conditions: 100 mM KCl, 25 mM MgCl2; 50 mM Tris-HCl pH 7.5, 25 °C, 100 nM RNA; apparent; near tight-binding limit
METTL3/14 = METTL3/14 (Homo sapiens, UniProt Q86U44)
Chain of METTL3/14 (Q86U44 2-580): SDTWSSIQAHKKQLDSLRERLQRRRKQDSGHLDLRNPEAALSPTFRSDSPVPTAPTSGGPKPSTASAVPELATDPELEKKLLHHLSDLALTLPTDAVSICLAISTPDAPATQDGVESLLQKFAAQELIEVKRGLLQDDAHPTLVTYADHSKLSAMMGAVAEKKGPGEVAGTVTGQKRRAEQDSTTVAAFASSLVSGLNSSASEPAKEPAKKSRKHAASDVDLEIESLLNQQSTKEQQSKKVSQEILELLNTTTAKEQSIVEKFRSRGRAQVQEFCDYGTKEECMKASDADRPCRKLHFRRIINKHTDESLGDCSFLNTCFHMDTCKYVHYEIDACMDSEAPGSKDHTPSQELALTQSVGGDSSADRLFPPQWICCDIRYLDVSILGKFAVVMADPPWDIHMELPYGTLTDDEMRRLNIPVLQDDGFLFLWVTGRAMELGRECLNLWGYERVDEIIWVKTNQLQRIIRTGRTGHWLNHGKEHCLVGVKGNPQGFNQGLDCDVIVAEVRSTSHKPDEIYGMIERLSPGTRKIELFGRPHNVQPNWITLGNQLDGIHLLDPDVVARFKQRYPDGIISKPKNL
Chain of METTL3/14 (Q9HCE5 whole entry partner): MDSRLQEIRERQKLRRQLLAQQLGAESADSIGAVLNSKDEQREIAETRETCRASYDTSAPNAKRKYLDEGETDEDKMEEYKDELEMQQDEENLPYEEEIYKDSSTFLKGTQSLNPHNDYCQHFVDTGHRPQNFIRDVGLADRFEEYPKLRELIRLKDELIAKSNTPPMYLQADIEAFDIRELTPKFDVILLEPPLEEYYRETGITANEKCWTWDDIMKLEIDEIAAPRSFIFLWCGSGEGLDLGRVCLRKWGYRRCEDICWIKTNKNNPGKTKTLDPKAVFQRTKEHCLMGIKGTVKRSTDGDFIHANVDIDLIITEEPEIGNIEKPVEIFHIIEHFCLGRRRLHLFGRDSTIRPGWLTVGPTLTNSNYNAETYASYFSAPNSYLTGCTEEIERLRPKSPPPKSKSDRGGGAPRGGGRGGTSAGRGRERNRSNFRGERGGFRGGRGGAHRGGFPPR

KD [1] [nM]	KD [2] [nM]	KD [3] [nM]	Structure (SMILES)	further results
953	699 ± 185	157	C[S+](CC[C@H](N)C(=O)O)C[C@H]1O[C@@H](n2cnc3c(N)ncnc32)[C@H](O)[C@@H]1O (stereo partly drawn)	–
–	–	–	NC[C@@H]1O[C@H](O[C@H]2[C@@H](O)[C@H](O[C@@H]3[C@@H](O)[C@H](N)C[C@H](N)[C@H]3O[C@H]3O[C@H](CN)[C@@H](O)[C@H](O)[C@H]3N)O[C@@H]2CO)[C@H](N)[C@@H](O)[C@@H]1O	KD,app [4]: 29.6 nM
–	–	–	NCc1c[nH]c2nc(N)[nH]c(=O)c12	KD,app [5]: 44.8 nM
10000	23600 ± 7000	137000	Nc1ncnc2c1ncn2[C@@H]1O[C@H](CSCC[C@H](N)C(=O)O)[C@@H](O)[C@H]1O	–
–	–	–	C[S+](CC[C@H](N)C(=O)[O-])C[C@H]1O[C@@H](n2cnc3c(N)ncnc32)[C@H](O)[C@@H]1O (stereo partly drawn) [S-adenosylmethionine]	Km (METTL3/14): 0.226 µM
